In PubChem BioAssay (NCI):
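Cultured in 96-well plates, cells were exposed to test compound for 48 hours across five concentrations. GI50 is the concentration that inhibits growth by half. TGI: total growth inhibition.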 Where a SMILES comes first, the peptide text is derived from it. The star is where a group is joined. Boc = CC(C)(C)OC(=O)*; OtBu = CC(C)(C)O*

Experiments:
Assay in all cases: inhibition of tumour cell growth, NCI panel, 48 h
[1] = tested on: SN12C renal
[2] = tested on: U251 CNS
[3] = tested on: DU-145 prostate
[4] = tested on: T-47D breast
[5] = tested on: SNB-75 CNS
[6] = tested on: IGROV1 ovarian
[7] = tested on: MDA-MB-231 breast
[8] = tested on: MOLT-4 leukemia
[9] = tested on: SF-268 CNS
[10] = tested on: LOX IMVI melanoma

Row | Compound | TGI [1] [µM] | TGI [2] [µM] | TGI [3] [µM] | TGI [4] [µM] | TGI [5] [µM] | TGI [6] [µM] | TGI [7] [µM] | TGI [8] [µM] | TGI [9] [µM] | TGI [10] [µM] | GI50 [1] [µM] | GI50 [2] [µM] | GI50 [4] [µM] | GI50 [5] [µM] | GI50 [10] [µM] | GI50 [6] [µM] | GI50 [7] [µM] | GI50 [8] [µM] | GI50 [9] [µM]
1 | N#Cc1nc(CCC(C(=O)O)N2C(=O)c3ccccc3C2=O)oc1N (configuration not stated) | > 100 | > 100 | > 100 | > 100 | > 100 | > 100 | > 100 | > 100 | > 100 | – | – | – | – | – | – | – | – | – | –
2 | CC(=O)OC1=C(c2ccccc2)S(=O)(=O)c2ccccc21 | – | > 100 | > 100 | > 100 | > 100 | > 100 | > 100 | > 100 | > 100 | > 100 | – | – | – | – | – | – | – | – | –
3 | CC(=O)OC(C(=O)NNC(=O)OC(C)(C)C)c1ccccc1 (configuration not stated) | > 100 | > 100 | > 100 | > 100 | > 100 | > 100 | > 100 | > 100 | > 100 | – | – | – | – | – | – | – | – | – | –
4 | Nc1nc(NCc2ccccc2)cc(NCc2ccccc2)n1 | 32.4 | 71.2 | – | 25.9 | 13.1 | 23.9 | 22.4 | > 100 | 19.3 | 45 | – | – | – | – | – | – | – | – | –
5 | C=C1C(=O)O[C@H]2[C@@H]3O[C@@](C)(CC/C=C(\C)CCC[C@@H]2C)[C@H](O)C[C@@H]13 | 8.15 | > 100 | 27.2 | 16.8 | 30.7 | 35.6 | 21.6 | – | > 100 | 16.2 | – | – | – | – | – | – | – | – | –
6 | CC(=O)OCCn1c(Cc2ccc(Cl)cc2)nn(C(C)=O)c1=O | > 100 | > 100 | > 100 | > 100 | – | > 100 | > 100 | > 100 | > 100 | > 100 | – | – | – | – | – | – | – | – | –
7 | COc1ccc2c(c1)SC1=Nc3sc4cc(OC)ccc4[n+]3CN12 | > 100 | 63.6 | > 100 | 38.3 | – | > 100 | > 100 | 25.1 | 28.5 | – | – | – | – | – | – | – | – | – | –
8 | C/C(=N\NC(N)=O)C(CN1CCOCC1)C(c1ccccc1)c1c(O)c2ccccc2oc1=O (configuration not stated) | – | > 100 | > 100 | – | > 100 | > 100 | > 100 | > 100 | > 100 | > 100 | – | – | – | – | – | – | – | – | –
9 | CC(=O)Nc1ccc2c3c(cc(O)c2c1)N(C(=O)CCCCCCC(=O)Nc1ccc2c4c(cc(O)c2c1)N(C(=O)OC(C)(C)C)CC4CCl)CC3CCl (configuration not stated) | 2.59 | 11 | 0.0587 | 2.3 | 0.284 | > 33.8 | – | > 100 | 1.67 | > 33.4 | – | – | – | – | – | – | – | – | –
10 | O=C1/C(=C/c2ccc(Cl)cc2)NC(=S)N1CN1CCCCC1 | > 100 | > 100 | > 100 | – | > 100 | > 100 | > 100 | > 100 | 78.8 | > 100 | – | – | – | – | – | – | – | – | –
11 | COc1nc2c(c(=O)[nH]1)N=C(c1ccc([N+](=O)[O-])cc1)CC(c1ccccc1)N2 (configuration not stated) | > 100 | > 100 | > 100 | – | > 100 | > 100 | > 100 | > 100 | – | > 100 | – | – | – | – | – | – | – | – | –
12 | COc1cc(/C=C2\C(=O)Nc3ccc(O)cc32)cc(OC)c1OC | 72.2 | 16.8 | – | > 100 | 33.7 | 35.7 | 37 | 28.5 | 26.8 | 16.6 | 15.5 | 4.08 | 7.55 | 8.54 | 4.53 | 12.1 | 8.06 | 1.24 | 6.49
13 | CSc1ccc(/C=C2\N=C(c3ccccc3)N(NC(=O)c3c(Cl)c(Cl)c(Cl)c(Cl)c3-c3nc4ccccc4[nH]3)C2=O)cc1 | > 100 | – | > 100 | 25.6 | 46.6 | > 100 | – | 77.3 | > 100 | > 100 | – | – | – | – | – | – | – | – | –
14 | CC(C)(C)OC(=O)CC(NC(=O)OC(C)(C)C)C(=O)NC(Cc1ccccc1)C(N)=O (configuration not stated) (Boc-Asp(OtBu)-Phe-NH2; configuration not given here) | > 100 | > 100 | > 100 | > 100 | > 100 | > 100 | > 100 | – | > 100 | > 100 | – | – | – | – | – | – | – | – | –
15 | O=C(O)OC12CCCCCC1C(=O)C1CCCCC12 (configuration not stated) | > 100 | > 100 | – | – | > 100 | – | – | > 100 | > 100 | > 100 | – | – | – | – | – | – | – | – | –
16 | CSC(SC)=C1Sc2cccc(Cl)c2S1 | > 100 | > 100 | – | – | > 100 | > 100 | – | > 100 | > 100 | > 100 | – | – | – | – | – | – | – | – | –
17 | COc1ccc(CCN2C(=O)C(=O)C(C(=O)c3ccccc3)C2c2ccccc2)cc1OC (configuration not stated) | > 100 | > 100 | > 100 | > 100 | – | > 100 | > 100 | > 100 | > 100 | > 100 | – | – | – | – | – | – | – | – | –
18 | Nc1cc2c(C3OC(CO)C(O)C3O)[nH]nc2c(=S)[nH]1 (configuration not stated) | > 100 | > 100 | – | – | > 100 | > 100 | – | > 100 | > 100 | – | – | – | – | – | – | – | – | – | –
19 | COc1ccc(C2OC2C(=O)C23CC4CC(CC(C4)C2)C3)cc1 (configuration not stated) | > 100 | > 100 | > 100 | > 100 | – | > 100 | > 100 | > 100 | > 100 | > 100 | – | – | – | – | – | – | – | – | –
20 | CCCCc1c2c([n+]([O-])c3c1CCCC3)CCCC2 | > 100 | > 100 | – | – | – | > 100 | – | > 100 | > 100 | > 100 | – | – | – | – | – | – | – | – | –
21 | O=c1cc(O)c1=O | > 100 | > 100 | > 100 | > 100 | > 100 | > 100 | – | > 100 | > 100 | > 100 | – | – | – | – | – | – | – | – | –
22 | CCOC(=O)c1c2ccccc2n2c(=O)n(-c3ccccc3)nnc12 | > 100 | > 100 | > 100 | 71.5 | 89.5 | > 100 | > 100 | – | > 100 | > 100 | – | – | – | – | – | – | – | – | –
23 | Cc1[nH]n(C(=O)Cc2ccccc2)c(=O)c1/C=C1\C(=O)C=Cc2ccccc21 | > 100 | – | – | – | > 100 | – | – | > 100 | > 100 | 93 | – | – | – | – | – | – | – | – | –
